Data reported in patent publication US12280121B2, “Immunoconjugates and methods” (Immunome, Inc., priority 2021, dated 2025).
pIC50: −log10 of the molar value. Like-named read-outs stand apart in the source and are kept apart here. Non-standard residues stand in square brackets, D forms with d. Residues, ends and D or L forms follow the SMILES beside them. *: point of attachment. Dolaproine = CO[C@@H]([C@@H]1CCCN1)[C@@H](C)C(=O)O; Dil = CC[C@H](C)[C@H](NC)[C@@H](CC(=O)O)OC; X1 = C[C@@H](N*)[C@@H](O)c1ccccc1; NMeV = CN[C@H](C(=O)O)C(C)C

Tests used:
human liver microsome = experiment: Human liver microsome clearance (HLM CL); type: in vitro ADME; settings: human liver microsomes 0.5 mg protein/mL, NADPH, 60 min
Procedure: (§1) Working solution was prepared by adding 5 μL of compound and control stock solution (10 mM in dimethyl sulfoxide, DMSO) to 495 μL of acetonitrile (ACN) (intermediate solution concentration: 100 μM, 99% CAN and 1% DMSO. The appropriate concentrations of microsome working solutions were prepared in 100 mM potassium phosphate buffer. After reaction plates containing mixtures of compound and microsomes were pre-incubated at 37° C. for 10 min, […] of 2 mM of NADPH and 2 mM of MgCl2 solution was added to start the reaction. The final concentrations of incubation medium were as follows: microsome—0.5 mg protein/mL, test compound/control […], NADPH—1 mM, MgCl2 —1 mM, acetonitrile 0.99%, DMSO 0.01%. Incubations were performed at 37° C. for 60 min. Samples were taken out at TO, T5, T15, T30, T45 and T60, which was added intermediately to the ice-cold stop solution (acetonitrile with 200 ng/mL of tobutamide and labetalol as internal standard) (125 μl), shaken for 10 min, centrifuged at 4000 rpm for 20 min at 4° C. Analytical plates were analyzed by LCMS.
(§2) Human liver microsome clearance assay assess metabolism by the cytochrome P450 system (phase I enzymes). These enzymes oxidize substrates by incorporating oxygen atoms into hydrocarbons, thus causing the introduction of hydroxyl groups, or N- O- and S-dealkylation of substrates and forming more polar products easier to be cleared. Human hepatocyte clearance assay measures more broadly the overall cellular metabolism of the test compound (phase I and phase II enzyme pathways). Phase II enzymes catalyze the conjugation reaction of xenobiotic metabolites and charged species, such as glutathione, sulfate, glycine, or glucuronic acid to form even more polar compounds for easier clearance.

Jeko-1 [1] = experiment: CTG assay (CellTiter-Glo cell viability), Jeko-1, payload compounds; type: cell-based; settings: 72 h, CellTiter-Glo, read-out: JeKo-1 IC50
Description: (§3) The CTG assay is a method of determining the number of viable cells in culture based on quantitation of the ATP present, an indicator of metabolically active cells. The cell assay requires the addition of a single reagent, Cell Titer Glo, in which cells are lysed and generation of a luminescent signal is produced. The luminescent signal is proportional to the amount of ATP present. The amount of ATP is directly proportional to the number of cells present in culture. For our assay, cells were ensured to be in log-phase for either Jeko-1 or MDA-MB-468. Cells were transferred to 96 wells and treated with compounds in three-fold serial dilution starting from 1 μM to 0.0000508 μM (10 points dilution), for 72 h. Cell viability was analyzed with CellTiter-Glo® Luminescent Cell Viability Assay (Promega) following manufactures' instruction. Percentage of viable cells in each compound concentration was determined by normalizing with the luminescence of vehicle control and plotted into percentage of viability versus dose response curve by nonlinear fit in GraphPad Prism software.

human hepatocytes = experiment: Human hepatocyte clearance (HHEP CL); type: in vitro ADME; parameters: CLint scaled / half-life: dose or concentration left out as unconfirmed; settings: human hepatocytes, 90 min incubation
Procedure: (§4) Suspensions of human hepatocytes (from 10 mixed gender human donors, final concentration 0.5×10^6 cell/mL) in Williams' E medium were incubated for 90 min with a test compound (0.90% acetonitrile and 0.10% DMSO, final concentration […]) and positive controls (7-Ethoxycoumarin, 7-Hydroxycoumarin, 0.90% acetonitrile and 0.10% DMSO, final concentration […]), with constant shaking at about 600 rpm at 37° C. in an incubator at 5% CO2 and 95% humidity. The total volume of incubation was 200 μl. A sample ([…]) was taken out at TO, 15, 30, 60 and 90 min, which was added intermediately to the ice-cold stop solution (acetonitrile with 200 ng/mL of tobutamide and labetalol as internal standard) (125 μl), and vortexed at 500 rpm for 10 min, centrifuged at 3220×g for 20 min at 4° C. Analytical plates are sealed and stored at 4° C. until LCMS analysis. Viability of hepatocytes at pre-incubation was determined to be 84.5%.
as §2

MDA-MB-468 = experiment: CTG assay (CellTiter-Glo cell viability), MDA-MB-468, payload compounds; type: cell-based; settings: 72 h, CellTiter-Glo, read-out: MDA-MB-468 IC50
Description: as §3

Jeko-1 [2] = experiment: CTG assay of ROR-1 ADCs and toxins, JeKo-1; type: cell-based
Procedure: FIG. 33 illustrates a CTG assay wherein ROR+ (JeKo-1) cells were incubated with the ADCs generated as described in FIG. 32 in serial three-fold dilutions and cell viability was assessed after 72 hours.
as §3
Novel ROR-1 antibody-drug conjugates (ADCs) were evaluated by CTG Assay in a similar manner as was described in Example 24 for screening of payloads. […] Briefly ROR+(JeKo-1/MDA-MB-468) or ROR− (Ramos) cells were transferred to 96 wells and treated with the ADCs in three-fold serial dilution starting from […] (10 points dilution), for 72 h. Cell viability was analyzed with CellTiter-Glo® Luminescent Cell Viability Assay (Promega) following the manufactures' instructions (FIG. 33). The percentage of viable cells at each ADC concentration was determined by normalizing with the luminescence of vehicle control and plotted into percentage of viability versus dose response curve by nonlinear fit in GraphPad Prism software.

[3] = Human liver microsome clearance (HLM CL); type: in vitro ADME; settings: human, microsomes
Procedure: as §1, §2

[4] = Human hepatocyte clearance (HHEP CL); type: in vitro ADME; parameters: CLint scaled / half-life: dose or concentration left out as unconfirmed; settings: both sexes, human, hepatocytes
Procedure: as §4, §2

[5] = PAMPA (Parallel Artificial Membrane Permeability Assay); type: physicochemical
Description: PAMPA is a method which determines the permeability of substances from a donor compartment, through a lipid-infused artificial membrane into an acceptor compartment. See Ottaviani, G.; Martel, S.; Carrupt, P-A. “Parallel Artificial Membrane Permeability Assay: A New Membrane for the Fast Prediction of Passive Human Skin Permeability”, Journal of Medicinal Chemistry, 2006, 49 (13), 3948-3954). A multi-well microtitre plate is used for the donor and a membrane/acceptor compartment is placed on top; the whole assembly is commonly referred to as a “sandwich”. At the beginning of the test, the drug is added to the donor compartment, and the acceptor compartment is drug-free. After an incubation period which may include stirring, the sandwich is separated, and the amount of drug is measured in each compartment. Mass balance allows calculation of drug that remains in the membrane.
The PAMPA was performed by Pion Inc using the GIT-0 lipid and 5 μM donor solution in pH 5.0 and pH 7.4 PRISMA buffer (containing 0.05% DMSO). The higher PAMPA data has been associated with better bystander killing. (Ogitani Y.; Hagihara K.; Oitate, M.; Naito, H.; Agatsuma T. “Bystander killing effect of DS-8201a, a novel anti-human epidermal growth factor receptor 2 antibody-drug conjugate, in tumors with human epidermal growth factor receptor 2 heterogeneity” Cancer Science, 2016, 107 (7), 1039-1046).

[6] = AC-SINS self-interaction assay; type: physicochemical; settings: FIG. 30
Procedure: Antibody developability was assessed by performing an AC-SINS assay and evaluating the potential for self-interaction.
An initial assessment of antibody developability was performed by AC-SINS to evaluate the potential for self-interaction (FIG. 30).

[7] = Jeko-1, average of run 1 and run 2, read-out: Avg. IC50
[8] = Jeko-1 P3, run 1, 72 h, read-out: Jeko-1 P3 (RUN1) IC50
[9] = Homo sapiens, Jeko-1, average of run 1 and run 2, read-out: Avg. IC50
[10] = Homo sapiens, Jeko-1 P3, run 1, 72 h, read-out: Jeko-1 P3 (RUN1) IC50
[11] = Homo sapiens, Jeko-1 P4, run 2, 72 h, read-out: Jeko-1 P4 (RUN2) IC50

Molecule	CLint scaled [3]	half-life [3]	pIC50 (Jeko-1 [1]; Homo sapiens, JeKo-1)	CLint scaled [4]	half-life [4]	pIC50 (MDA-MB-468; Homo sapiens, MDA-MB-468)	Papp at 5 μM ([5]; pH 5)	Papp at 5 μM ([5]; pH 7.4)	also measured
CC[C@@]1(O)C(=O)OCc2c1cc1n(c2=O)Cc2c-1nc1cc(F)c(C)c3c1c2[C@@H](NC(=O)CO)CC3 [Dxd, reference compound]	–	–	–	–	–	–	–	–	HLM (T1/2) (human liver microsome): (>145); HLM Cl (human liver microsome clearance) (human liver microsome): 8.6 mL/min/kg; pIC50 (Jeko-1 [1]): 8.85; HHEP (T1/2) (human hepatocytes): (79.0) min; HHEP Cl (human hepatocytes intrinsic clearance) (human hepatocytes): 48.7 mL/min/kg; pIC50 (MDA-MB-468): 7.94; pIC50 (Jeko-1 [2]; [7]): 9.05; pIC50 (Jeko-1 [2]; [8]): 9.05
CC[C@@]1(O)C(=O)OCc2c1cc1n(c2=O)Cc2c-1nc1cc(F)c(C)c3c1c2[C@@](C)(NC(=O)CO)CC3 [Compound 9-74, N-((1S,9S)-9-ethyl-5-fluoro-9-hydroxy-1,4-dimethyl-10,13-dioxo-1,2,3,9,10,12,13,15-octahydrobenzo[de]pyrano[3′,4′:6,7]indolizino[1,2-b]quinolin-1-yl)-2-hydroxyacetamide]	22.7 mL/min/kg	0.915 h	8.39	57.5 mL/min/kg	1.12 h	7.24	36.1 ×10⁻⁶ cm/s	4.4 ×10⁻⁶ cm/s	pIC50 (Jeko-1 [2]; [9]): 8.51; pIC50 (Jeko-1 [2]; [10]): 8.62; pIC50 (Jeko-1 [2]; [11]): 8.43
CC[C@@]1(O)C(=O)OCc2c1cc1n(c2=O)Cc2c-1nc1cc(F)c(C)c3c1c2[C@@H](OCCO)CC3 (single isomer, unassigned) [Compound 5-48]	17.4 mL/min/kg	1.2 h	9.17	75.5 mL/min/kg	0.852 h	8.08	69 ×10⁻⁶ cm/s	9 ×10⁻⁶ cm/s	pIC50 (Jeko-1 [2]; [9]): 9.30; pIC50 (Jeko-1 [2]; [10]): 9.30; pIC50 (Jeko-1 [2]; [11]): 9.30
CC[C@H](C)[C@@H]([C@@H](CC(=O)N1CCC[C@H]1[C@H](OC)[C@@H](C)C(=O)N[C@H](C)[C@@H](O)c1ccccc1)OC)N(C)C(=O)[C@@H](NC(=O)[C@@H](NC)C(C)C)C(C)C [MMAE, reference compound] (H-[NMeV]V[Dil][Dolaproine]-X1)	–	–	–	–	–	–	–	–	pIC50 (Jeko-1 [2]; [7]): 9.70; pIC50 (Jeko-1 [2]; [8]): 9.70; pIC50 (Jeko-1 [2]; Jeko-1 P4, run 2, 72 h, read-out: Jeko-1 P4 (RUN2) IC50): 9.70
Adalimumab	–	–	–	–	–	–	–	–	AC-SINS shift (self-interaction) [6]: low shift
CC[C@@]1(O)C(=O)OCc2c1cc1n(c2=O)Cc2c-1nc1cc(F)c(C)c3c1c2[C@@H](O)CC3 (single isomer, unassigned) [Compound 3-35]	20.2 mL/min/kg	1.03 h	9.34	50.4 mL/min/kg	1.27 h	8.33	66.1 ×10⁻⁶ cm/s	11.1 ×10⁻⁶ cm/s	–
CC[C@@]1(O)C(=O)OCc2c1cc1n(c2=O)Cc2c-1nc1cc(F)c(C)c3c1c2[C@](C)(NC(=O)CO)CC3 [Compound 10-75, N-((1R,9S)-9-ethyl-5-fluoro-9-hydroxy-1,4-dimethyl-10,13-dioxo-1,2,3,9,10,12,13,15-octahydrobenzo[de]pyrano[3′,4′:6,7]indolizino[1,2-b]quino-lin-1-yl)-2-hydroxyacetamide]	27.2 mL/min/kg	0.765 h	7.24	40.8 mL/min/kg	1.57 h	6.33	46.8 ×10⁻⁶ cm/s	3.9 ×10⁻⁶ cm/s	–
